Measurements as given in patent US6924302B2, “Substituted triazole diamine derivatives as kinase inhibitors” (Ortho McNeil Pharmaceutical, Inc., priority 2000, dated 2005).
Like-named read-outs stand apart in the source and are kept apart here.

Key:
[1] = test system: MDA-MB-231; assay: Inhibition of Cell Proliferation (14C-thymidine incorporation), MDA-MB-231; type: cell-based; details: Homo sapiens, MDA-MB-231 cell line
Experimental: (§1) The ability of a test compound to inhibit the proliferation of cell growth was determined by measuring incorporation of ^14C-labelled thymidine into newly synthesized DNA within the cells. […] Cells were trypsinized and counted and 3000-8000 cells were added to each well of a 96-well CytoStar tissue culture treated scintillating microplate (Amersham #RPNQ0160) in complete medium in a volume of 100 μl. Cells were incubated for 24 hours in complete medium at 37° C. in an atmosphere containing 5% CO2. Next, 1 μl of test compound in 100% DMSO was added to the wells of the plate. DMSO only was added to control wells. Cells were incubated for 24 more hours in complete medium at 37° C. in an atmosphere containing 5% CO2. […] The plate was incubated for 24 hours at 37° C. plus 5% CO2 in drug plus ^14C-thymidine. The contents of the plate were discarded into a ^14C radioactive waste container by inverting the plate and the plate was washed twice with 200 μl PBS. 200 μl of PBS is added to each well. […] The degree of methyl ^14C-thymidine incorporation was quantified on a Packard Top Count.

[2] = test system: SK-OV-3 ovarian adenocarcinoma; assay: Inhibition of Cell Proliferation (14C-thymidine incorporation), SK-OV-3; type: cell-based; details: Homo sapiens, SK-OV-3 cell line
Experimental: as §1

[3] = target: T1, VEGF-R (vascular endothelial growth factor receptor-2) (Rattus norvegicus, UniProt O08775); assay: VEGF-R Screening Assay; type: biochemical; details: read-out: VEGF-R IC50
T1 construct: polyhistidine (6xHIS) (N)

[4] = target: FGF-R2 (Homo sapiens, UniProt P21802); assay: Kinase Selectivity Assay FGF-R2; type: biochemical; details: Tables 2a-2k
Experimental: Assays to test compound inhibition of other kinases were preformed using methods that measure the amount of phosphorylation of a biotinylated peptide substrate. Biotinylated peptide substrates were selected from the literature as appropriate for the enzyme being evaluated. […] Assay conditions vary slightly for each protein kinase, for example, insulin receptor kinase requires 10 mM MnCl2 for activity and Calmodulin-dependent protein kinase requires calmodulin and 10 mM CaCl2. These assay conditions are known in the art. The reaction mixture was dispensed into the wells of a streptavidin coated Flashplate and 1 μl drug stock in 100% DMSO was added to a 100 μl reaction volume resulting in a final concentration of 1% DMSO on the reaction. Enzyme was diluted in 50 mM Tris-HCl pH=8.0, 0.1% BSA and add to each well. The reaction was incubated for one hour at 30° C. in the presence of compound. After one hour the reaction mix was aspirated from the plate and the plate was washed with PBS containing 100 mM EDTA. The plate was read on a scintillation counter to determine ^33P-γ-ATP incorporated into the immobilized peptide. Test compounds were assayed in duplicate at 8 concentrations [100 uM, 10 uM, 1 uM, 100 nM, 10 nM, 1 nM, 100 pM, 10 pM]. A maximum and minimum signal for the assay was determined on each plate. The IC50 was calculated from the dose response curve of the percent inhibition of the maximum signal in the assay according to the formula [max signal—background/test compound signal—background (100)=% inhibition] by graphing the percent inhibition against the log concentration of test compound. Known inhibitor compounds appropriate for the kinase being assayed were also included on each plate.

[5] = Kinase Selectivity, Tables 2a-2k

T1 sequence (O08775 786-1343): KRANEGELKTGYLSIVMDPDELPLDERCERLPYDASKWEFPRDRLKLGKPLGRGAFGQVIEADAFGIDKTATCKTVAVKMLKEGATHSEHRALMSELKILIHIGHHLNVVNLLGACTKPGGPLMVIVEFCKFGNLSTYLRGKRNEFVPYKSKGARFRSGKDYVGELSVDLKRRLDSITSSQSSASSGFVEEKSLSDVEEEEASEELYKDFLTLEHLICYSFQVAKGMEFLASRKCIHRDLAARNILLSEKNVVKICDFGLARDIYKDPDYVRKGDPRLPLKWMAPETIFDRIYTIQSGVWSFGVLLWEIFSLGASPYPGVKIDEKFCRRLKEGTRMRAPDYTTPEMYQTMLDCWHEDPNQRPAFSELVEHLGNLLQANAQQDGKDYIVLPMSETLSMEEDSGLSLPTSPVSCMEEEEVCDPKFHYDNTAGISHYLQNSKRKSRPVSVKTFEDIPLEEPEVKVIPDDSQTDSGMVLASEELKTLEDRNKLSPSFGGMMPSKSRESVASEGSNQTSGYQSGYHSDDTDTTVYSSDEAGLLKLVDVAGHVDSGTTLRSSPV
Chain of FGF-R2 (P21802 22-821, species assumed): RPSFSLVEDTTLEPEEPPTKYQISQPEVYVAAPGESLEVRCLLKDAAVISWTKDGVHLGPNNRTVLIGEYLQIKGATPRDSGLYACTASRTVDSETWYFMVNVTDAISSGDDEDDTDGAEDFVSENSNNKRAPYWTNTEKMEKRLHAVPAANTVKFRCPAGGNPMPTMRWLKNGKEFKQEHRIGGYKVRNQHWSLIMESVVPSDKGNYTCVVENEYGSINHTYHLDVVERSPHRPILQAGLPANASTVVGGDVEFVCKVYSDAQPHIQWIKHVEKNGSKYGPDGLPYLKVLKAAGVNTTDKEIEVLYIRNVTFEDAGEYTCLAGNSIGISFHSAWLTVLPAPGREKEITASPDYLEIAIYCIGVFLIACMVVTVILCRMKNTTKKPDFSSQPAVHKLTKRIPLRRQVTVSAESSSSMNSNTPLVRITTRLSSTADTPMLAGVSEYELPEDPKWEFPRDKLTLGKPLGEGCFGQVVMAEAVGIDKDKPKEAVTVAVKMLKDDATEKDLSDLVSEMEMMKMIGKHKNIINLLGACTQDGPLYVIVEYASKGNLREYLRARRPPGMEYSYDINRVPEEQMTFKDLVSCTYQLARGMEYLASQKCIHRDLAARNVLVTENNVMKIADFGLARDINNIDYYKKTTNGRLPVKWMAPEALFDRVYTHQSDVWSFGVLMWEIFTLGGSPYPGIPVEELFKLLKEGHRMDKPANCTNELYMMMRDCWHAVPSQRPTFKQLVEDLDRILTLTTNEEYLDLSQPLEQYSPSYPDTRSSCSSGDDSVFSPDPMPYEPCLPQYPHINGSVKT

Structure (SMILES)	IC50 [1]	IC50 [2]	IC50 [3, 5]	IC50 ([3]; Table 1)	IC50 [4]
Nc1nc(Nc2ccc(S(N)(=O)=O)cc2)nn1C(=O)c1c(F)cccc1F [Cpd 1, 4-[[5-amino-1-(2,6-difluorobenzoyl)-1H-1,2,4-triazol-3-yl]amino]-benzenesulfonamide]	587 nM	750 nM	–	–	–
Nc1nc(Nc2ccc(S(N)(=O)=O)cc2)nn1C(=O)c1cccs1 [Cpd 14, 4-[[5-amino-1-(2-thienylcarbonyl)-1H-1,2,4-triazol-3-yl]amino]-benzenesulfonamide]	756 nM	727 nM	26 nM	26.7 nM	27 nM
Nc1nc(Nc2ccc(S(=O)(=O)N3CCCCC3)cc2)nn1C(=O)c1cccs1 [Cpd 23, N^3-[4-(1-piperidinylsulfonyl)phenyl]-1-(2-thienylcarbonyl)-1H-1,2,4-triazole-3,5-diamine]	868 nM	1420 nM	35 nM	35.3 nM	–
